Results as given in patent US12077503B2, “Substituted cyclic amides and their use as herbicides” (FMC CORPORATION, priority 2015, dated 2024).

Columns and labels:
Format in all cases: in vivo
Kochia (Kochia scoparia) [1] = assay: Test A preemergence; details: Bassia scoparia, pre-emergence, 240 h, Preemergence
How it was run: (§1)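 Visual injury scores from 0, no effect, to 100, complete control, were assigned versus untreated controls roughly 10 d after treatment in the greenhouse. Test chemicals, formulated with surfactant in a non-phytotoxic solvent, were applied to planted seeds as a preemergence soil spray or postemergence to one- to two-leaf plants 2 to 10 cm tall, in loam–sand soil.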

[2] = test system: barnyardgrass (Echinochloa crus-galli); assay: Test A preemergence; details: Echinochloa crus-galli, pre-emergence, 240 h, Preemergence
How it was run: as §1

[3] = test system: pigweed (Amaranthus retroflexus); assay: Test A preemergence; details: Amaranthus retroflexus, pre-emergence, 240 h, Preemergence
[4] = test system: ragweed (common ragweed, Ambrosia elatior); assay: Test A preemergence; details: Ambrosia artemisiifolia, pre-emergence, 240 h, Preemergence
How it was run: as §1

[5] = test system: ryegrass, Italian (Italian ryegrass, Lolium multiflorum); assay: Test A preemergence; details: Lolium multiflorum, pre-emergence, 240 h, Preemergence
How it was run: as §1

[6] = test system: Galium (catchweed bedstraw, Galium aparine); assay: Test A postemergence; details: Galium, post-emergence, 240 h, Postemergence, read-out: Galium plant response rating (0 to 100 scale)
How it was run: as §1

Kochia (Kochia scoparia) [7] = assay: Test A postemergence; details: Bassia scoparia, post-emergence, 240 h, Postemergence, read-out: Kochia plant response rating (0 to 100 scale)
How it was run: as §1

[8] = test system: barnyardgrass (Echinochloa crus-galli); assay: Test A postemergence; details: Echinochloa crus-galli, post-emergence, 240 h, Postemergence
How it was run: as §1

[9] = test system: blackgrass (Alopecurus myosuroides); assay: Test A postemergence; details: Alopecurus myosuroides, post-emergence, 240 h, Postemergence, read-out: Blackgrass plant response rating (0 to 100 scale)
How it was run: as §1

corn (Zea mays) = assay: Test A postemergence; details: Zea mays, post-emergence, 240 h, Postemergence, read-out: Corn plant response rating (0 to 100 scale)
How it was run: as §1

[10] = test system: giant foxtail (Setaria faberii); assay: Test A postemergence; details: Setaria faberi, post-emergence, 240 h, Postemergence, read-out: Foxtail, Giant plant response rating (0 to 100 scale)
How it was run: as §1

[11] = test system: pigweed (Amaranthus retroflexus); assay: Test A postemergence; details: Amaranthus retroflexus, post-emergence, 240 h, Postemergence, read-out: Pigweed plant response rating (0 to 100 scale)
How it was run: as §1

[12] = test system: ragweed (common ragweed, Ambrosia elatior); assay: Test A postemergence; details: Ambrosia artemisiifolia, post-emergence, 240 h, Postemergence, read-out: Ragweed plant response rating (0 to 100 scale)
How it was run: as §1

[13] = test system: ryegrass, Italian (Italian ryegrass, Lolium multiflorum); assay: Test A postemergence; details: Lolium multiflorum, post-emergence, 240 h, Postemergence, read-out: Ryegrass, Italian plant response rating (0 to 100 scale)
How it was run: as §1

[14] = test system: wheat (Triticum aestivum); assay: Test A postemergence; details: Triticum aestivum, post-emergence, 240 h, Postemergence, read-out: Wheat plant response rating (0 to 100 scale)
How it was run: as §1

[15] = 125 g ai/ha, visual rating about 10 d after treatment
[16] = 31 g ai/ha, 0 is no effect, 100 is complete control

CN1C[C@H](c2csc3c2CCC(F)(F)C3)[C@@H](C(=O)Nc2ccccc2S(C)(=O)=O)C1=O (racemic) [Compound 1367]
30%: pest or weed control at 125 g/ha ([8]; 125 g ai/ha, visual rating about 10 d after treatment, read-out: Barnyardgrass plant response rating (0 to 100 scale, 0 no effect, 100 complete control)) | pest or weed control at 125 g/ha [10, 15]
0%: pest or weed control at 31 g/ha (Kochia (Kochia scoparia) [1]; 31 g ai/ha, 0 to 100 scale where 0 is no effect and 100 is complete control, read-out: Kochia plant response rating) | pest or weed control at 125 g/ha (Kochia (Kochia scoparia) [1]; 125 g ai/ha, 0 to 100 scale (0 no effect, 100 complete control), read-out: Plant response rating, Kochia) | pest or weed control at 31 g/ha ([2]; 31 g ai/ha, 0 to 100 scale where 0 is no effect and 100 is complete control, read-out: Barnyardgrass plant response rating) | pest or weed control at 31 g/ha ([3]; 31 g ai/ha, 0 to 100 scale where 0 is no effect and 100 is complete control, read-out: Pigweed plant response rating) | pest or weed control at 125 g/ha ([3]; 125 g ai/ha, 0 to 100 scale (0 no effect, 100 complete control), read-out: Plant response rating, Pigweed) | pest or weed control at 31 g/ha ([4]; 31 g ai/ha, 0 to 100 scale where 0 is no effect and 100 is complete control, read-out: Ragweed plant response rating) | pest or weed control at 125 g/ha ([4]; 125 g ai/ha, 0 to 100 scale (0 no effect, 100 complete control), read-out: Plant response rating, Ragweed) | pest or weed control at 31 g/ha ([5]; 31 g ai/ha, 0 to 100 scale where 0 is no effect and 100 is complete control, read-out: Ryegrass, Italian plant response rating) | pest or weed control at 125 g/ha ([5]; 125 g ai/ha, 0 to 100 scale (0 no effect, 100 complete control), read-out: Plant response rating, Ryegrass, Italian) | pest or weed control at 125 g/ha [6, 15] | pest or weed control at 31 g/ha [6, 16] | pest or weed control at 125 g/ha (Kochia (Kochia scoparia) [7]; [15]) | pest or weed control at 31 g/ha (Kochia (Kochia scoparia) [7]; [16]) | pest or weed control at 31 g/ha ([8]; 31 g ai/ha, 0 is no effect, 100 is complete control, read-out: Barnyardgrass plant response rating (0 to 100 scale)) | pest or weed control at 125 g/ha [9, 15] | pest or weed control at 31 g/ha [9, 16] | plant injury at 125 g/ha (corn (Zea mays); [15]) | plant injury at 31 g/ha (corn (Zea mays); [16]) | pest or weed control at 31 g/ha [10, 16] | pest or weed control at 31 g/ha [11, 16] | pest or weed control at 125 g/ha [12, 15] | pest or weed control at 31 g/ha [12, 16] | pest or weed control at 125 g/ha [13, 15] | pest or weed control at 31 g/ha [13, 16] | plant injury at 125 g/ha [14, 15] | plant injury at 31 g/ha [14, 16]
20%: pest or weed control at 125 g/ha [11, 15]
80%: pest or weed control at 125 g/ha ([2]; 125 g ai/ha, 0 to 100 scale (0 no effect, 100 complete control), read-out: Plant response rating, Barnyardgrass)
